Source: publication PMC4988501, “Pinpointing a Mechanistic Switch Between Ketoreduction and “Ene” Reduction in Short‐Chain Dehydrogenases/Reductases” (Angewandte Chemie (International Ed. in English), 2016)

Legend:
Type in all cases: binding
[1] = biological target: T1, IPR (isopiperitenone reductase) (Mentha x piperita, UniProt Q6WAU1); assay: X-ray crystal structure of complex; conditions: non-substrate, bound in a non-active conformation; with NADP+
T1 construct: recombinant; scavenged NADP+ from host cells; catalytic Glu238; construct details only in supplement
T1 sequence (Q6WAU1 whole entry): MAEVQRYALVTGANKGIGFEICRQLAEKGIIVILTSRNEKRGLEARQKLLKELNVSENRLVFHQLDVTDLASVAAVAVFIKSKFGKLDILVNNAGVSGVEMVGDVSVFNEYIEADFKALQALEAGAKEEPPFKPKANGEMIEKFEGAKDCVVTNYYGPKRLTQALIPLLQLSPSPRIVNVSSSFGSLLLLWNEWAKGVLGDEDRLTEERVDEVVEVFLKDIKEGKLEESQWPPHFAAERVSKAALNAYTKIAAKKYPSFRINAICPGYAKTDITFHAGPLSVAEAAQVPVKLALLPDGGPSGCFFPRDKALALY

[2] = biological target: T2, MNMR ((−)‐menthone:(+)‐neomenthol reductase) (Mentha x piperita, UniProt Q06ZW2); assay: X-ray crystal structure, crystal soaking; conditions: crystals soaked with NADP+
T2 construct: recombinant; catalytic Tyr244; construct details only in supplement
T2 sequence (Q06ZW2 entry or part of it): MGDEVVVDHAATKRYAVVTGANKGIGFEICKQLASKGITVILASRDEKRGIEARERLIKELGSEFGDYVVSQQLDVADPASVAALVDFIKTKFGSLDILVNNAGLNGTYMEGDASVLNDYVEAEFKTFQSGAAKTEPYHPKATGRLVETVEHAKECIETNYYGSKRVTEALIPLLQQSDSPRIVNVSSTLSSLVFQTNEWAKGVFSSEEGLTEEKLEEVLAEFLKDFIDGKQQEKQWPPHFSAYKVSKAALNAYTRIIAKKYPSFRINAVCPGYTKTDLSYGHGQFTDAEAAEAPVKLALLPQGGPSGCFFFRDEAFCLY

[3] = biological target: T1, IPR (isopiperitenone reductase); assay: X-ray crystal structure; conditions: oxidised cofactor scavenged from expression host

## CC1=C(C=O)C(C)(C)CCC1 [β‐cyclocitral]
[1]
  X-ray crystal structure of complex: The IPR–β‐cyclocitral co‐crystal structure shows the ligand binds in a non‐active conformation

## NC(=O)c1ccc[n+]([C@@H]2O[C@H](COP(=O)(O)OP(=O)(O)OC[C@H]3O[C@@H](n4cnc5c(N)ncnc54)[C@H](OP(=O)(O)O)[C@@H]3O)[C@@H](O)[C@H]2O)c1 [NADP+]
[2]
  X-ray crystal structure, crystal soaking: A coenzyme‐bound MNMR structure was obtained by soaking crystals with NADP^+
[3]
  X-ray crystal structure: presence of clear density in the F0−Fc map for NADP^+
